Source: US9006250B2, “4-amino-6-(heterocyclic)picolinates and 6-amino-2-(heterocyclic)pyrimidine-4-carboxylates and their use as herbicides” (Dow AgroSciences, LLC, priority 2013, dated 2015)

Assays:
Experiment in all cases: Post-Emergent Test I herbicidal activity
Format in all cases: in vivo
Settings in all cases: 4 Kg ai/ha
[1] = tested on: IPOHE: ivyleaf morningglory (Ipomoea hederecea)
Description: (§1) Post-Emergent Test I: Seeds test species were obtained from commercial suppliers and planted into a 5″-round pot containing soil-less media mix (Metro-Mix 360®, Sun Gro Horticulture). Postemergence treatments were planted 8-12 days (d) prior to application and cultured in a greenhouse equipped with supplemental light sources to provide a 16 hour (h) photoperiod at 24-29° C. All pots were surface irrigated. Approximately 10 milligrams (mg) of each compound were dissolved in 1.3 mL acetone-DMSO (97:3, v/v) and diluted with 4.1 mL water-isopropanol-crop oil concentrate (78:20:2, v/v/v) containing 0.02% Triton X-155. Treatments were serial diluted with the above formulation solvent to provide 1.85, 0.926, 0.462 and 0.231 mg/mL of test compound delivered in 2.7 mL/pot (roughly equivalent to 4.0, 2.0, 1.0, and 0.5 kg/ha, respectively). Formulated compounds were applied using a DeVilbiss® compressed air sprayer at 2-4 pounds per square inch (psi). Following treatment, pots were returned to the greenhouse for the duration of the experiment. All pots were sub-irrigated as need to provide optimum growing conditions. All pots were fertilized one time per week by subirrigating with Peters Peat-Lite Special® fertilizer (20-10-20). Phytotoxicity ratings were obtained 10 days after treatment postemergence applications. All evaluations were made visually on a scale of 0 to 100 where 0 represents no activity and 100 represents complete plant death. Visual assessments of plant injury were made based on growth reduction, discoloration, leaf deformity and necrosis.

[2] = tested on: AVEFA: wild oats (Avena fatua)
Description: as §1

[3] = tested on: SETFA: giant foxtail (Setaria faberi)
Description: as §1

[4] = tested on: HELAN: sunflower (Helianthus annuus)
Description: as §1

[5] = tested on: ECHCG: barnyardgrass (Echinochloa crus-galli)
Description: as §1

COC(=O)c1nc(-c2cc3nonc3cc2F)nc(N)c1OC [Compound 10, Methyl 6-amino-2-(6-fluorobenzo[c][1,2,5]oxadiazol-5-yl)-5-methoxypyrimidine-4-carboxylate]
C (75-84): Visual Growth Reduction (%) 10 Days After Application IPOHE [1] | Visual Growth Reduction (%) 10 Days After Application AVEFA [2] | Visual Growth Reduction (%) 10 Days After Application SETFA [3] | Visual Growth Reduction (%) 10 Days After Application HELAN [4] | Visual Growth Reduction (%) 10 Days After Application ECHCG [5]
